Target: S-adenosylmethionine synthetase (MAT, cMAT) (Escherichia coli, UniProt P0A817)
Assay: […]-methionine incorporation into AdoMet with purified enzyme
Type: biochemical

Sequence of S-adenosylmethionine synthetase (MAT, cMAT) (P0A817 2-384): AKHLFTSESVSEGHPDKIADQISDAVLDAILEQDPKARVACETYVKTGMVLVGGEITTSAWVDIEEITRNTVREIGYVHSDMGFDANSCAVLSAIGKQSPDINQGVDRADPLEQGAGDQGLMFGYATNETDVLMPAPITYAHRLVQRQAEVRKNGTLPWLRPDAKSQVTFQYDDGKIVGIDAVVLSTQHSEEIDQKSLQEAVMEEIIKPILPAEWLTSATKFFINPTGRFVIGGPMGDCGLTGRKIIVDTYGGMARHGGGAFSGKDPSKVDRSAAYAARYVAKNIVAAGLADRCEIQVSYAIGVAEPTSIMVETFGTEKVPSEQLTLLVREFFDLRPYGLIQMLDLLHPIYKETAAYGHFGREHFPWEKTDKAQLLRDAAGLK

CCOc1ccccc1NC(=O)NCC(=O)NNC(=O)Nc1cc([N+](=O)[O-])ccc1C [compound 1, 1-(3-(2-ethoxyphenyl)ureidoacetyl)-4-(2-methyl-5-nitrophenyl)semicarbazide]
Ki: 1.9 ± 0.8 nM
